In US20260265267A1, “NOVEL COMPOUNDS WITH MTORC2-INHIBITORY ACTIVITY AND USES THEREOF” (Aliad Biopharma, priority 2023, published 2026):

Columns and labels:
mTORC1 = molecular target: T1, mTORC1 (Homo sapiens, UniProt P42345); assay: mTORC1 inhibitory activity in HeLa cells (p70S6K Thr389 phosphorylation, Western blot); assay type: cell-based; settings: 9 hours; for remaining activity at 40 µM: read-out: pThr389-S6K/S6K (% control)
T1 construct: the following experiments were conducted in HeLa cells; endogenous in cells; host or cells: HeLa
Procedure, shortened: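 HeLa cells treated with compounds at 40 μM for 9 hours, lysed in RIPA, and equal protein analysed by Western blot. Phospho-p70S6K (Thr389) signal normalized to total p70S6K and expressed as percent of DMSO vehicle control.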

LC3-II = LC3-II formation as indicator of autophagy in HeLa cells (Western blot); assay type: cell-based, human; settings: 9 hours; for activity at 40 µM: Homo sapiens, read-out: LC3-II (% control)
Procedure, shortened: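 HeLa cells were treated with compounds at 40 μM for 9 h, then lysed in RIPA buffer and analysed by Western blot with chemiluminescent detection. LC3-II signal normalized to pan-Akt and expressed as percent of the DMSO vehicle control.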

[1] = molecular target: T2, mTOR(CD) protein and mLST8 protein (Homo sapiens, UniProt P42345+Q9BVC4); assay: mTOR(CD)-mLST8 binding assay (co-precipitation, Western blot); settings: read-out: inhibition of the binding between mTOR(CD) and mLST8 proteins
T2 construct: mTOR C-terminal domain (mTOR(CD), a.a. 2179-2549); made in house; host or cells: E. coli (mTOR(CD)); insect Sf9 cells (mLST8, used as a crude extract)
Description: mLST8 binds to the mTOR C-terminal domain (mTOR(CD), a.a. 2179-2549). After binding to mTOR, mLST8 interacts with mSin1 and Rictor to complete the formation of the mTORC2 complex, serving as a scaffold. In order to evaluate the inhibitory activity of the compounds synthesized in Examples 1 to 70 on the binding between mLST8 protein and mTOR(CD) protein, the following mTOR(CD)-mLST8 binding assay was performed. Four types of compounds: HN2210, HN2213, HN2221 and HN2313 were used as the experimental target compounds.
Specifically, mTOR(CD) protein was overexpressed in E. coli, labeled with biotin, and then partially purified. mLST8 protein was overexpressed in insect Sf9 cells to obtain mLST8 extract. mTOR(CD)-biotin and mLST8 extract were incubated at 4° C. to induce binding between mTOR(CD)-biotin and mLST8 proteins, and then the mTOR(CD)-biotin and mLST8 complex were co-precipitated using avidin-agarose beads. The relative amounts of precipitated mTOR(CD)-biotin and mLST8 proteins were measured by Western blot analysis, as shown in FIG. 4. Four types of compounds were added during the incubation process of the mTOR(CD)-biotin and mLST8 extract.

[2] = system: 5×FAD Alzheimer's disease model mice; assay: Passive avoidance test in 5×FAD mice (long-term memory); assay type: in vivo
Description: In order to evaluate the efficacy of HN2210, HN2213, and HN2313 on Alzheimer's disease-related symptoms, specifically regarding 1) memory and cognitive impairment, 2) amyloid plaques, 3) neurofibrillary tangles (NFTs), and 4) brain inflammation, an in vivo efficacy assessment of HN2210, HN2213 and HN2313 was conducted using 5×FAD Alzheimer's disease model mice. The 5×FAD mice were purchased from Jackson Lab, USA (Cat #034840-JAX) and crossed once with C57bl6 mice to produce F1 heterozygous offspring (Het). The compound was administered via intraperitoneal injection to 6-month-old 5×FAD Het mice, followed by behavioral testing. The normal control mice, which were littermates of the 5×FAD Het mice, were aged to 6 months and received DMSO injection at the same volume.
Specifically, to mice trained to avoid bright light three times daily, an electric foot shock (1 mA, 300 g) was applied for 3 seconds in a dark room at the same time on the next day. After 24 hours, the mice were placed again in the same room, and the avoidance response by light, that is, the time taken to move from the bright room to the dark room was measured. At 24 hours after habituation training, the mice were placed back into the bright room, and the latency time for entering the dark room was recorded over a period of 720 seconds.

[3] = 5 mg/kg, 14 days / 2 weeks (FIG. 7)

Row | effect on S6K Thr389 phosphorylation (mTORC1; 40 μM) | remaining activity at 40 µM (mTORC1) [%] | inhibition at 4 µM [1] [%] | inhibition at 40 µM [1] [%] | increase in S6K Thr389 phosphorylation (mTORC1; 40 μM) [%] | SMILES | increase in LC3-II (LC3-II; 40 μM) [%] | activity at 40 µM (LC3-II) [%] | passive avoidance latency time, % of the normal control level ([2]; 0.2 mg/kg, 14 days (FIG. 8d)) | passive avoidance latency time, increase compared to 5×FAD-DMSO mice ([2]; 0.2 mg/kg, 14 days (FIG. 8d)) [fold] | passive avoidance latency time, % of the normal control level ([2]; 1 mg/kg, 14 days (FIG. 8d)) [%] | passive avoidance latency time, increase compared to 5×FAD-DMSO mice ([2]; 1 mg/kg, 14 days (FIG. 8d)) [fold] | passive avoidance latency time, increase compared to 5×FAD-DMSO mice ([2]; 5 mg/kg, 14 days (FIG. 7)) [fold] | passive avoidance latency time, % of the normal control level ([2]; 5 mg/kg, 14 days (FIG. 8d)) [%] | passive avoidance latency time, increase compared to 5×FAD-DMSO mice ([2]; 5 mg/kg, 14 days (FIG. 8d)) [fold] | passive avoidance latency time, % of the normal control level [2, 3] | decrease in LC3-II (LC3-II; 40 μM) [%]
1 | no effect | 107 | 24 | 36 | – | O=C1c2cc(F)c(N3CCOCC3)cc2COc2cc3c(cc21)OCO3 [HN2210, 8-(morpholino)-9-fluoro[2]benzoxepino[3,4-f]-1,3-benzodioxol-11(6H)-one] | 22 | 108 | approximately 56% | 2.97 | ~83 | 4.39 | 5.16 | ~97 | 5.16 | approximately 84% | –
2 | – | 114 | 19 | 30 | 14 | O=C1c2cc(F)c(NCc3ccccc3)cc2COc2cc3c(cc21)OCO3 [HN2213, 8-(benzylamino)-9-fluoro[2]benzoxepino[3,4-f]-1,3-benzodioxol-11(6H)-one] | – | 67 | – | – | – | – | 4.52 | – | – | ~74% | 33
3 | – | 54 | – | 34 | – | O=C1c2cc(F)c(NC3CCCC3)cc2COc2cc3c(cc21)OCO3 [HN2313, 8-(cyclopentylamino)-9-fluoro-[1,3]dioxolo[4′,5′:4,5]benzo[1,2-b]benzo[e]oxepin-11(6H)-one] | 62 | 162 | – | – | – | – | 5.86 | – | – | ~96% | –
